Measured values reported in patent publication US9447048B2, “Processes for the preparation of pesticidal compounds” (Dow AgroSciences LLC, priority 2013, dated 2016).

Tests used:
[1] = tested on: Green Peach Aphid (Myzus persicae) (MYZUPE); assay: Bioassay on Green Peach Aphid (GPA), foliar spray on cabbage seedlings; format: in vivo; details: 200 ppm spray on cabbage leaves, graded after three days, live aphids, Abbott's correction
Description: Several molecules disclosed herein were tested against GPA using procedures described below.
Cabbage seedling grown in 3-in pots, with 2-3 small (3-5 cm) true leaves, were used as test substrate. The seedlings were infested with […] (wingless adult and nymph stages) one day prior to chemical application. Four pots with individual seedlings were used for each treatment. Test compounds (2 mg) were dissolved in 2 mL of acetone/MeOH (1:1) solvent, forming stock solutions of 1000 ppm test compound. The stock solutions were diluted 5× with 0.025% Tween 20 in water to obtain the solution at 200 ppm test compound. A hand-held aspirator-type sprayer was used for spraying a solution to both sides of the cabbage leaves until runoff. Reference plants (solvent check) were sprayed with the diluent only containing 20% by volume acetone/MeOH (1:1) solvent. Treated plants were held in a holding room for three days at approximately 25° C. and ambient relative humidity (RH) prior to grading. Evaluation was conducted by counting the number of live aphids per plant under a microscope. Percent Control was measured by using Abbott's correction formula (W. S. Abbott, “A Method of Computing the Effectiveness of an Insecticide” J. Econ. Entomol 18 (1925), pp. 265-267) as follows. Corrected % Control=100*(X−Y)/X • where • X=No. of live aphids on solvent check plants and • Y=No. of live aphids on treated plants
The results are indicated in the table entitled “Table 1: GPA (MYZUPE) and sweetpotato whitefly-crawler (BEMITA) Rating Table”.

[2] = tested on: Sweetpotato Whitefly Crawler (Bemisia tabaci) (BEMITA); assay: Bioassay on Sweetpotato Whitefly Crawler, foliar spray on cotton plants; format: in vivo; details: 200 ppm spray on cotton leaf, graded after 8-9 days, live nymphs, Abbott's correction
Description: Cotton plants grown in 3-inch pots, with 1 small (3-5 cm) true leaf, were used at test substrate. The plants were placed in a room with whitely adults. Adults were allowed to deposit eggs for 2-3 days. After a 2-3 day egg-laying period, plants were taken from the adult whitefly room. Adults were blown off leaves using a hand-held Devilbliss sprayer (23 psi). Plants with egg infestation (100-300 eggs per plant) were placed in a holding room for 5-6 days at 82° F. and 50% RH for egg hatch and crawler stage to develop. Four cotton plants were used for each treatment. Compounds (2 mg) were dissolved in 1 mL of acetone solvent, forming stock solutions of 2000 ppm. The stock solutions were diluted 10× with 0.025% Tween 20 in water to obtain a test solution at 200 ppm. A hand-held Devilbliss sprayer was used for spraying a solution to both sides of cotton leaf until runoff. Reference plants (solvent check) were sprayed with the diluent only. Treated plants were held in a holding room for 8-9 days at approximately 82° F. and 50% RH prior to grading. Evaluation was conducted by counting the number of live nymphs per plant under a microscope.

Structure (SMILES) | MYZUPE rating (% Control of Mortality) [1] | BEMITA rating (% Control of Mortality) [2]
O=C(CCSCCC(F)(F)F)Nc1cn(-c2cccnc2)nc1Cl [Compound 5.3, N-(3-chloro-1-(pyridin-3-yl)-1H-pyrazol-4-yl)-3-((3,3,3-trifluoropropyl)thio)propanamide] | A (80-100) | B (More than 0-Less than 80)
O=C(CCSCCC(F)(F)F)Nc1c[nH]nc1Cl [Compound 2.3, N-(3-chloro-1H-pyraxol-4-yl)-3-((3,3,3,trifluoropropyl)thio)propanamide] | B (More than 0-Less than 80) | B (More than 0-Less than 80)
CCN(C(=O)CC[S+]([O-])CCC(F)(F)F)c1cn(-c2cccnc2)nc1Cl (stereo not shown) [Compound 7.3, N-(3-chloro-1-(pyridin-3-yl)-1H-pyrazol-4-yl)-N-ethyl-3-((3,3,3-trifluoropropyl)sulfoxo)propanamide] | A (80-100) | A (80-100)
CCN(C(=O)CCSCCC(F)(F)F)c1cn(-c2cccnc2)nc1Cl [Compound 6.3, N-(3-chloro-1-(pyridin-3-yl)-1H-pyrazol-4-yl)-N-ethyl-3-((3,3,3-trifluoropropyl)thio)propanamide] | A (80-100) | A (80-100)
Cl.Nc1c[nH]nc1Cl [Compound 1a, 3-chloro-1H-pyrazol-4-amine Hydrochloride] | B (More than 0-Less than 80) | B (More than 0-Less than 80)
